Measured values: the supplement of paper PMC11368000

Legend:
Conditions in all cases: exposure time: 90 min
[1] = tested on: 1392 (donor line of iPSC-derived cardiomyocytes); test: POD (EC10) for decrease in total cell number (cytotoxicity) vs vehicle; higher = less potent (higher point of departure)
Method in brief: (§1)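 In 384-well plates, cardiomyocytes made from iPSCs of 16 human donors were cultured for 14 days before a 90 min, 37 °C exposure to final concentrations of 0.1, 1, 10 and 100 µM with 0.5% DMSO. Per-field nuclear counts from MetaXpress, normalised to vehicle, were fitted with hierarchical Bayesian Hill models using a 10% decrease. These fits yielded a cytotoxicity point of departure for each donor.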

[2] = tested on: 1434 (donor line of iPSC-derived cardiomyocytes); test: as above
Method in brief: as §1

[3] = tested on: 30171 (donor line of iPSC-derived cardiomyocytes); test: as above
Method in brief: as §1

[4] = tested on: 1531 (donor line of iPSC-derived cardiomyocytes); test: as above
Method in brief: as §1

[5] = tested on: 11235 (donor line of iPSC-derived cardiomyocytes); test: as above
Method in brief: as §1

[6] = tested on: 20032 (donor line of iPSC-derived cardiomyocytes); test: as above
Method in brief: as §1

[7] = tested on: 1565 (donor line of iPSC-derived cardiomyocytes); test: as above
Method in brief: as §1

[8] = tested on: 30145 (donor line of iPSC-derived cardiomyocytes); test: as above
Method in brief: as §1

[9] = tested on: 20084 (donor line of iPSC-derived cardiomyocytes); test: as above
Method in brief: as §1

[10] = tested on: 1392; test: POD (EC05) for increase in beat frequency (positive chronotrope) vs vehicle; higher = less potent (higher point of departure)
Experimental: (§2)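 Human iPSC-derived cardiomyocytes from 16 donors were exposed for 90 min at 37 °C to each PFAS at 0.1, 1, 10 and 100 µM in 0.5% DMSO, 384-well plates. Kinetic Ca2+ flux (FLIPR) and Hoechst nuclei counts were normalised to vehicle wells and fitted with a hierarchical Bayesian Hill model to give donor-specific PODs: EC05 for beat-rate increase or decrease and for decay-to-rise ratio increase (QT proxy), EC95 for peak-frequency loss (asystole), EC10 for total cell number loss. 0.03 µM is the lower bound.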

[11] = tested on: 1434; test: as above
Experimental: as §2

[12] = tested on: 1309 (donor line of iPSC-derived cardiomyocytes); test: as above
Experimental: as §2

[13] = tested on: 30171; test: as above
Experimental: as §2

[14] = tested on: 11235; test: as above
Experimental: as §2

[15] = tested on: 20032; test: as above
Experimental: as §2

[16] = tested on: 1516 (donor line of iPSC-derived cardiomyocytes); test: as above
Experimental: as §2

[17] = tested on: 1118 (donor line of iPSC-derived cardiomyocytes); test: as above
Experimental: as §2

[18] = tested on: 1083 (donor line of iPSC-derived cardiomyocytes); test: as above
Experimental: as §2

[19] = tested on: 1565; test: as above
Experimental: as §2

[20] = tested on: 1368 (donor line of iPSC-derived cardiomyocytes); test: as above
Experimental: as §2

SMILES | POD vs vehicle [1] [µM] | POD vs vehicle [2] [µM] | POD vs vehicle [3] [µM] | POD vs vehicle [4] [µM] | POD vs vehicle [5] [µM] | POD vs vehicle [6] [µM] | POD vs vehicle [7] [µM] | POD vs vehicle [8] [µM] | POD vs vehicle [9] [µM] | POD vs vehicle [10] [µM] | POD vs vehicle [11] [µM] | POD vs vehicle [12] [µM] | POD vs vehicle [13] [µM] | POD vs vehicle [14] [µM] | POD vs vehicle [15] [µM] | POD vs vehicle [16] [µM] | POD vs vehicle [17] [µM] | POD vs vehicle [18] [µM] | POD vs vehicle [19] [µM] | POD vs vehicle [20] [µM]
O=C(O)C(F)(F)OC(F)(F)C(F)(F)OC(F)(F)C(=O)O [Perfluoro-3,6-dioxaoctane-1,8-dioic_acid] | > 100 | > 100 | > 100 | > 100 | > 100 | > 100 | > 100 | > 100 | > 100 | 36 | > 100 | > 100 | > 100 | > 100 | > 100 | 68.4 | > 100 | > 100 | > 100 | > 100
O=C(O)C(F)(F)C(F)(F)OC(F)(F)F [Perfluoro-3-methoxypropanoic_acid] | > 100 | > 100 | > 100 | > 100 | > 100 | > 100 | > 100 | > 100 | > 100 | > 100 | > 100 | > 100 | > 100 | > 100 | > 100 | > 100 | > 100 | > 100 | > 100 | > 100
O=C(O)C(F)(F)C(F)(F)C(F)(F)OC(F)(C(F)(F)F)C(F)(F)F [Perfluoro-4-isopropoxybutanoic_acid] | > 100 | > 100 | > 100 | > 100 | > 100 | > 100 | > 100 | > 100 | > 100 | > 100 | > 100 | > 100 | > 100 | > 100 | > 100 | > 100 | > 100 | > 100 | > 100 | > 100
O=C(O)C(F)(F)C(F)(F)C(F)(F)F [Perfluorobutanoic_acid] | > 100 | > 100 | > 100 | > 100 | > 100 | > 100 | > 100 | > 100 | > 100 | > 100 | > 100 | > 100 | > 100 | > 100 | > 100 | > 100 | > 100 | > 100 | > 100 | > 100
O=C(O)C(F)(F)C(F)(F)C(F)(F)C(F)(F)C(F)(F)C(F)(F)C(F)(F)C(F)(F)C(F)(F)F [Perfluorodecanoic_acid] | > 100 | 75.8 | > 100 | > 100 | > 100 | 5.59 | 81.5 | > 100 | > 100 | > 100 | > 100 | > 100 | > 100 | > 100 | > 100 | > 100 | > 100 | > 100 | > 100 | > 100
NS(=O)(=O)C(F)(F)C(F)(F)C(F)(F)C(F)(F)C(F)(F)C(F)(F)F [Perfluorohexanesulfonamide] | > 100 | 20.6 | > 100 | > 100 | > 100 | > 100 | > 100 | > 100 | > 100 | > 100 | > 100 | > 100 | > 100 | > 100 | > 100 | > 100 | > 100 | > 100 | > 100 | > 100
O=S(=O)(O)C(F)(F)C(F)(F)C(F)(F)C(F)(F)C(F)(F)C(F)(F)F [Perfluorohexanesulfonic_acid] | > 100 | > 100 | > 100 | > 100 | > 100 | > 100 | > 100 | > 100 | > 100 | > 100 | > 100 | > 100 | > 100 | > 100 | > 100 | > 100 | > 100 | > 100 | > 100 | > 100
O=C(O)C(F)(F)C(F)(F)C(F)(F)C(F)(F)C(F)(F)F [Perfluorohexanoic_acid] | > 100 | > 100 | > 100 | > 100 | > 100 | > 100 | > 100 | > 100 | > 100 | > 100 | > 100 | > 100 | > 100 | > 100 | > 100 | > 100 | > 100 | > 100 | > 100 | > 100
O=C(O)C(F)(F)C(F)(F)C(F)(F)C(F)(F)C(F)(F)C(F)(F)C(F)(F)C(F)(F)F [Perfluorononanoic_acid] | > 100 | > 100 | > 100 | > 100 | > 100 | > 100 | > 100 | > 100 | > 100 | > 100 | > 100 | > 100 | > 100 | > 100 | > 100 | > 100 | > 100 | > 100 | > 100 | > 100
NC(=O)C(F)(F)C(F)(F)C(F)(F)C(F)(F)C(F)(F)C(F)(F)C(F)(F)F [Perfluorooctanamide] | > 100 | > 100 | > 100 | > 100 | > 100 | > 100 | > 100 | > 100 | > 100 | > 100 | > 100 | > 100 | > 100 | > 100 | > 100 | > 100 | > 100 | > 100 | > 100 | > 100
N=C(N)C(F)(F)C(F)(F)C(F)(F)C(F)(F)C(F)(F)C(F)(F)C(F)(F)F [Perfluorooctanamidine] | > 100 | > 100 | > 100 | > 100 | > 100 | > 100 | > 100 | > 100 | > 100 | > 100 | > 100 | > 100 | > 100 | > 100 | > 100 | > 100 | > 100 | > 100 | > 100 | > 100
O=S(=O)(O)C(F)(F)C(F)(F)C(F)(F)C(F)(F)C(F)(F)C(F)(F)C(F)(F)C(F)(F)F [Perfluorooctanesulfonic_acid] | > 100 | > 100 | > 100 | > 100 | > 100 | > 100 | > 100 | > 100 | > 100 | > 100 | > 100 | > 100 | > 100 | > 100 | > 100 | > 100 | > 100 | > 100 | > 100 | > 100
O=C(O)C(F)(F)C(F)(F)C(F)(F)C(F)(F)C(F)(F)C(F)(F)C(F)(F)F [Perfluorooctanoic_acid] | > 100 | > 100 | > 100 | > 100 | > 100 | > 100 | > 100 | > 100 | > 100 | > 100 | > 100 | > 100 | > 100 | > 100 | > 100 | > 100 | > 100 | > 100 | > 100 | > 100
O=C(O)C(F)(F)C(F)(F)C(F)(F)C(F)(F)F [Perfluoropentanoic_acid] | > 100 | > 100 | > 100 | > 100 | > 100 | > 100 | > 100 | > 100 | > 100 | > 100 | > 100 | > 100 | > 100 | > 100 | > 100 | > 100 | > 100 | > 100 | > 100 | > 100
O=C(O)C(F)(F)C(F)(F)F [Perfluoropropanoic_acid] | > 100 | > 100 | > 100 | > 100 | > 100 | > 100 | > 100 | > 100 | > 100 | > 100 | > 100 | > 100 | > 100 | > 100 | > 100 | > 100 | > 100 | > 100 | > 100 | > 100
O=C(O)C(F)(F)C(F)(F)C(F)(F)C(F)(F)C(F)(F)C(F)(F)C(F)(F)C(F)(F)C(F)(F)C(F)(F)F [Perfluoroundecanoic_acid] | > 100 | > 100 | > 100 | > 100 | > 100 | > 100 | > 100 | > 100 | > 100 | > 100 | > 100 | > 100 | > 100 | > 100 | > 100 | > 100 | > 100 | > 100 | > 100 | > 100
O=S(=O)([O-])C(F)(F)C(F)(F)C(F)(F)C(F)(F)F.[K+] [Potassium_perfluorobutanesulfonate] | > 100 | 53.9 | > 100 | > 100 | > 100 | > 100 | > 100 | > 100 | > 100 | > 100 | > 100 | > 100 | > 100 | > 100 | > 100 | > 100 | > 100 | > 100 | > 100 | > 100
